Experimental data: PubChem BioAssay AID256 (DTP/NCI, 2004)
Toxic doses and inconclusive results are not listed. Rule for the calls: active = survival T/C of 150% or more; inactive = T/C below 125% in these data.

System: CD2F1 mice, L1210 leukemia ip, survival T/C
Experiment: NCI In Vivo Anticancer Drug Screen. Data for tumor model L1210 Leukemia (intraperitoneal) in CD2F1 (CDF1) mice
Conditions: endpoint: mean survival time, higher = longer survival
Summary of the method: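 Implant tumor; dose compound or vehicle; measure endpoint in both groups; report treated divided by control.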

[1] = dose: 75.0 mg/kg/injection, schedule: Q01DX001 (ip), vehicle: saline
[2] = dose: 150.0 mg/kg/injection, schedule: Q01DX001 (ip), vehicle: saline
[3] = dose: 300.0 mg/kg/injection, schedule: Q01DX001 (ip), vehicle: saline
[4] = dose: 100.0 mg/kg/injection, schedule: Q04DX003 (ip), vehicle: saline with Tween-80
[5] = dose: 200.0 mg/kg/injection, schedule: Q04DX003 (ip), vehicle: saline with Tween-80
[6] = dose: 400.0 mg/kg/injection, schedule: Q04DX003 (ip), vehicle: saline with Tween-80
[7] = dose: 100.0 mg/kg/injection, schedule: Q01DX009 (ip), vehicle: saline with Tween-80
[8] = dose: 200.0 mg/kg/injection, schedule: Q01DX009 (ip), vehicle: saline with Tween-80
[9] = dose: 400.0 mg/kg/injection, schedule: Q01DX009 (ip), vehicle: saline with Tween-80
[10] = dose: 100.0 mg/kg/injection, schedule: Q01DX001 (ip), vehicle: saline with Tween-80
[11] = dose: 200.0 mg/kg/injection, schedule: Q01DX001 (ip), vehicle: saline with Tween-80
[12] = dose: 400.0 mg/kg/injection, schedule: Q01DX001 (ip), vehicle: saline with Tween-80
[13] = dose: 100.0 mg/kg/injection, schedule: Q01DX001 (ip), vehicle: Klucel (hydroxypropylcellulose) (HPC)
[14] = dose: 200.0 mg/kg/injection, schedule: Q01DX001 (ip), vehicle: Klucel (hydroxypropylcellulose) (HPC)
[15] = dose: 400.0 mg/kg/injection, schedule: Q01DX001 (ip), vehicle: Klucel (hydroxypropylcellulose) (HPC)
[16] = dose: 100.0 mg/kg/injection, schedule: Q01DX001 (ip), vehicle: saline
[17] = dose: 200.0 mg/kg/injection, schedule: Q01DX001 (ip), vehicle: saline
[18] = dose: 400.0 mg/kg/injection, schedule: Q01DX001 (ip), vehicle: saline

Measured: T/C

CCOC(=O)c1c2c(n3ccccc13)C(=O)c1ccccc1C2=O
inactive: [1] 97 % of control | [2] 103 % of control | [3] 105 % of control

CC(C)(C)C1CCC(O)(CSc2ccccc2)CC1 (stereo unspecified)
inactive: [4] 97 % of control | [5] 92 % of control | [6] 92 % of control

COC(c1ccccc1)C(Br)c1ccccc1 (stereo unspecified)
inactive: [7] 97 % of control | dose: 100.0 mg/kg/injection, schedule: Q04DX003 (ip), vehicle: saline sonified 103 % of control | [8] 97 % of control | dose: 200.0 mg/kg/injection, schedule: Q04DX003 (ip), vehicle: saline sonified 100 % of control | [9] 109 % of control | dose: 400.0 mg/kg/injection, schedule: Q04DX003 (ip), vehicle: saline sonified 105 % of control

O=c1[nH]c(-c2ccccc2)c(N=Nc2ccccc2)c(=O)[nH]1
inactive: [10] 89 % of control | [11] 96 % of control | [12] 102 % of control

CCCCCCCCCCCCCCCC[N+]1(CCC)CCSCC1
inactive: [10] 102 % of control | [11] 110 % of control

COc1cccc(OC)c1OC(=O)/C=C/C(=O)Oc1c(OC)cccc1OC
inactive: [7] 96 % of control | [8] 96 % of control | [9] 98 % of control

COCCCNc1ccc([N+](=O)[O-])cn1
inactive: dose: 50.0 mg/kg/injection, schedule: Q01DX001 (ip), vehicle: carboxymethylcellulose (CMC) 100 % of control | dose: 100.0 mg/kg/injection, schedule: Q01DX001 (ip), vehicle: carboxymethylcellulose (CMC) 100 % of control | dose: 200.0 mg/kg/injection, schedule: Q01DX001 (ip), vehicle: carboxymethylcellulose (CMC) 108 % of control

COC(=O)c1cccc(OC)c1OC
inactive: [7] 101 % of control | [4] 108 % of control | [8] 96 % of control | [5] 98 % of control | [9] 98 % of control | [6] 100 % of control

O=C(c1ccccc1)C(O)(Cc1ccccc1)c1ccccc1 (stereo unspecified)
inactive: [4] 96 % of control | [5] 102 % of control | [6] 97 % of control

Cc1nc2ccccc2c(=O)n1-c1ccccc1Cl
inactive: [7] 100 % of control | [4] 100 % of control | [8] 105 % of control | [5] 102 % of control | [9] 117 % of control | [6] 112 % of control

Cc1cc(C)cc(NC(=O)c2ccccc2N)c1
inactive: [7] 107 % of control | [8] 95 % of control | [9] 107 % of control

Cc1cnc(N)nc1-c1ccccc1
inactive: [10] 102 % of control | [11] 94 % of control | [12] 94 % of control

CCCCC(CC)(CO)C(=O)NN (stereo unspecified)
inactive: [4] 97 % of control | [5] 100 % of control | [6] 97 % of control

Cc1ccc2nc(-c3ccc(Cl)cc3Cl)oc(=O)c2c1
inactive: dose: 100.0 mg/kg/injection, schedule: Q04DX002 (ip), vehicle: saline with Tween-80 100 % of control | dose: 200.0 mg/kg/injection, schedule: Q04DX002 (ip), vehicle: saline with Tween-80 114 % of control | dose: 400.0 mg/kg/injection, schedule: Q04DX002 (ip), vehicle: saline with Tween-80 107 % of control

CN(C)C1CC[N-]CC1.CN(C)C1CC[N-]CC1.[Cl][Pt+2][Cl]
inactive: dose: 25.0 mg/kg/injection, schedule: Q04DX003 (ip), vehicle: saline 103 % of control | dose: 50.0 mg/kg/injection, schedule: Q04DX003 (ip), vehicle: saline 109 % of control | dose: 100.0 mg/kg/injection, schedule: Q04DX003 (ip), vehicle: saline 114 % of control

COc1ccc(C[C@@H]2NC[C@@H](O)[C@@H]2OC(C)=O)cc1
inactive: [7] 98 % of control | [4] 105 % of control | [8] 104 % of control | [5] 103 % of control | [6] 100 % of control

CCN(CC)CCN(C)C(O)(C(=O)c1ccccc1)C1CCCCC1 (stereo unspecified)
inactive: [1] 105 % of control | [2] 102 % of control | [3] 100 % of control

ClCCN(CCCl)c1ccc(N=Nc2ccc(Cl)cc2)cc1
inactive: [13] 94 % of control | [14] 94 % of control | [15] 97 % of control

CCC(/C=C/C(C)C1CCC2C3CC=C4CC(O)CCC4(C)C3CCC12C)C(C)C (stereo unspecified) (tested in a mixture with another compound)
inactive: dose: 12.5 mg/kg/injection, schedule: Q01DX001 (ip), vehicle: water 97 % of control | dose: 12.5 mg/kg/injection, schedule: Q01DX009 (ip), vehicle: water 100 % of control | dose: 25.0 mg/kg/injection, schedule: Q01DX001 (ip), vehicle: water 97 % of control | dose: 25.0 mg/kg/injection, schedule: Q01DX009 (ip), vehicle: other 94 % of control | dose: 25.0 mg/kg/injection, schedule: Q01DX009 (ip), vehicle: water 103 % of control | dose: 50.0 mg/kg/injection, schedule: Q01DX001 (ip), vehicle: water 102 % of control | dose: 50.0 mg/kg/injection, schedule: Q01DX009 (ip), vehicle: other 91 % of control | dose: 50.0 mg/kg/injection, schedule: Q01DX009 (ip), vehicle: water 96 % of control | [7] 94 % of control | [8] 89 % of control

CC(C)(CO)CN1CCCCC1
inactive: [4] 101 % of control | [5] 93 % of control

COB(C1CCCCC1)C1CCCCC1
inactive: dose: 100.0 mg/kg/injection, schedule: Q01DX009 (ip), vehicle: other 91 % of control | dose: 200.0 mg/kg/injection, schedule: Q01DX009 (ip), vehicle: other 88 % of control

N#CC1C(=O)c2ccccc2C1=O
inactive: dose: 25.0 mg/kg/injection, schedule: Q04DX003 (ip), vehicle: saline with Tween-80 91 % of control | dose: 50.0 mg/kg/injection, schedule: Q04DX003 (ip), vehicle: saline with Tween-80 93 % of control | [4] 93 % of control

CSC(=S)N(C)/N=C/c1ccccn1
inactive: [7] 98 % of control | [8] 96 % of control

O=c1[nH]cc[nH]1
inactive: dose: 267.0 mg/kg/injection, schedule: Q01DX009 (ip), vehicle: saline 111 % of control

O/N=C/C1CCCC[N-]1.[Co+3].[O-]/N=C/C1CCCC[N-]1.[O-]/N=C/C1CCCC[N-]1.[O-][Cl+3]([O-])([O-])O (stereo unspecified)
inactive: [16] 108 % of control | [17] 96 % of control | [18] 96 % of control

CN=C(c1ccccc1)C1(O)CC2CCC1C2 (stereo unspecified)
inactive: [16] 101 % of control | [17] 98 % of control | [18] 101 % of control

CCOC(=O)C(C(C)=O)C(=O)CCc1ccccc1 (stereo unspecified)
inactive: [4] 99 % of control | [5] 100 % of control | [6] 103 % of control

O=S(=O)(Cc1ccccc1)CC(Br)CBr (stereo unspecified)
inactive: [13] 91 % of control | [14] 103 % of control | [15] 106 % of control

CC(=O)CCCCOC(C)=O
inactive: [4] 101 % of control | [5] 101 % of control | [6] 98 % of control

CCCCCCCCC1SC1CCCCCCCC(=O)OCCN(C)C(=O)CCCCCCCC1SC1CCCCCCCC (stereo unspecified)
inactive: dose: 100.0 mg/kg/injection, schedule: Q04DX003 (ip), vehicle: other 100 % of control | dose: 200.0 mg/kg/injection, schedule: Q04DX003 (ip), vehicle: other 92 % of control | dose: 400.0 mg/kg/injection, schedule: Q04DX003 (ip), vehicle: other 90 % of control

CC12CCC(OC3CCCCO3)CC1=CCC1C2CCC2(C)C1CCC2(O)CCN (stereo unspecified)
inactive: dose: 6.25 mg/kg/injection, schedule: Q01DX005 (ip), vehicle: other 100 % of control | dose: 12.5 mg/kg/injection, schedule: Q01DX005 (ip), vehicle: other 97 % of control | dose: 15.6 mg/kg/injection, schedule: Q01DX001 (ip), vehicle: Klucel (hydroxypropylcellulose) (HPC) 104 % of control | dose: 31.2 mg/kg/injection, schedule: Q01DX001 (ip), vehicle: Klucel (hydroxypropylcellulose) (HPC) 96 % of control | dose: 62.5 mg/kg/injection, schedule: Q01DX001 (ip), vehicle: Klucel (hydroxypropylcellulose) (HPC) 98 % of control

C=CCC(C)(C)/C=N/N
inactive: dose: 37.5 mg/kg/injection, schedule: Q01DX009 (ip), vehicle: saline 101 % of control | [1] 95 % of control | dose: 75.0 mg/kg/injection, schedule: Q01DX009 (ip), vehicle: saline 100 % of control | [2] 98 % of control | dose: 150.0 mg/kg/injection, schedule: Q01DX009 (ip), vehicle: saline 107 % of control

c1ccc2c(c1)OP(OP1Oc3ccccc3O1)O2
inactive: dose: 25.0 mg/kg/injection, schedule: Q01DX009 (ip), vehicle: saline with Tween-80 98 % of control | dose: 50.0 mg/kg/injection, schedule: Q01DX009 (ip), vehicle: saline with Tween-80 98 % of control | [7] 107 % of control | dose: 100.0 mg/kg/injection, schedule: Q04DX003 (ip), vehicle: acetone 103 % of control
